From US9580463B2 (BRISTOL-MYERS SQUIBB COMPANY, priority 2013, dated 2017)
Like-named read-outs stand apart in the source and are kept apart here.

Legend:
[1] = rcm bond, 15-membered ring, Hoveyda-Grubbs II, DCE, 80.0 °C
[2] = tested on: HCV genotype 1a (H77 strain) replicon in HUH-7 cells; experiment: HCV replicon luciferase reporter assay, genotype 1a; type: cell-based; settings: Hepatitis C virus, 72 h, genotype 1a replicon, 3 days incubation, read-out: LE_1a (EC50, range)
How it was run: (§1)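 Twenty-point, threefold compound titrations (0.5% DMSO) were incubated 3 days at 37 °C with 3.0×10^3 HUH-7 cells/well in 4% FCS. The cells stably carried luciferase replicons: genotype 1b Con1 (S1179I) or 1a H77 (NS3 P1496L, NS5A S2204I). Renilla signal was read after 2 h with 7.5 μM EnduRen, and EC50 was taken from a four-parameter logistic fit. Cytotoxicity (CC50) was measured by Cell Titer-Blue, 8 h.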

[3] = tested on: HCV genotype 1b (Con1) replicon in HUH-7 cells; experiment: HCV replicon luciferase reporter assay, genotype 1b; type: cell-based; settings: Hepatitis C virus, 72 h, genotype 1b replicon, 3 days incubation, read-out: LE_1b (EC50, range)
How it was run: as §1

Row | Structure (SMILES) | EC50 [2] [nM] | EC50 [3] [nM] | also measured
1 | COC[C@@H]1CC(C)CC/C=C\[C@@H]2C[C@@]2(C(=O)NS(=O)(=O)C2(C)CC2)NC(=O)[C@@H]2C[C@@H](O)CN2C(=O)[C@H]1NC(=O)OC(C)(C)C (some centres unmarked) | – | – | ring closure, isolated yield ([1]; from C=CCCC(C)C[C@@H](COC)[C@H](NC(=O)OC(C)(C)C)C(=O)N1C[C@H](O)C[C@H]1C(=O)N[C@]1(C(=O)NS(=O)(=O)C2(C)CC2)C[C@H]1C=C, 7.5 mM): 76%
2 | COC[C@@H]1CC(C)CC/C=C\[C@@H]2C[C@@]2(C(=O)NS(=O)(=O)C2CC2)NC(=O)[C@@H]2C[C@@H](O)CN2C(=O)[C@H]1NC(=O)OC(C)(C)C (some centres unmarked) | – | – | ring closure, isolated yield ([1]; from C=CCCC(C)C[C@@H](COC)[C@H](NC(=O)OC(C)(C)C)C(=O)N1C[C@H](O)C[C@H]1C(=O)N[C@]1(C(=O)NS(=O)(=O)C2CC2)C[C@H]1C=C, 9.2 mM, 4.0 h): 71%
3 | COC[C@@H]1CCCC/C=C\[C@@H]2C[C@@]2(C(=O)NS(=O)(=O)C2CC2)NC(=O)[C@@H]2C[C@@H](O)CN2C(=O)[C@H]1NC(=O)OC(C)(C)C | – | – | ring closure, isolated yield ([1]; from C=CCCCC[C@@H](COC)[C@H](NC(=O)OC(C)(C)C)C(=O)N1C[C@H](O)C[C@H]1C(=O)N[C@]1(C(=O)NS(=O)(=O)C2CC2)C[C@H]1C=C, 10.8 mM, 2.0 h): 52%
4 | COC[C@@H]1C[C@H](C)CC/C=C\[C@@H]2C[C@@]2(C(=O)NS(=O)(=O)C2(C)CC2)NC(=O)[C@@H]2C[C@@H](Oc3ncc(OC)c4ccccc34)CN2C(=O)[C@H]1NC(=O)OC(C)(C)C [Compound 1010, tert-butyl ((2R,6S,7R,9R,13aS,14aR,16aS,Z)-2-((4-methoxyisoquinolin-1-yl)oxy)-7-(methoxymethyl)-9-methyl-14a-(((1-methylcyclopropyl)sulfonyl)carbamoyl)-5,16-dioxo-1,2,3,5,6,7,8,9,10,11,13a,14,14a,15,16,16a-hexadecahydrocyclopropa[e]pyrrolo[1,2-a][1,4]diazacyclopentadecin-6-yl)carbamate] | 0.51 to 1 | 0.1 to 0.5 | –
5 | COC[C@@H]1C[C@H](C)CC/C=C\[C@@H]2C[C@@]2(C(=O)NS(=O)(=O)C2(CF)CC2)NC(=O)[C@@H]2C[C@@H](Oc3nc4cc(OC)ccc4nc3C(F)(F)F)CN2C(=O)[C@H]1NC(=O)OC(C)(C)C [Compound 1035, tert-butyl ((2R,6S,7R,9R,13aS,14aR,16aS,Z)-14a-(((1-(fluoromethyl)cyclopropyl)sulfonyl)carbamoyl)-2-((7-methoxy-3-(trifluoromethyl)quinoxalin-2-yl)oxy)-7-(methoxymethyl)-9-methyl-5,16-dioxo-1,2,3,5,6,7,8,9,10,11,13a,14,14a,15,16,16a-hexadecahydrocyclopropa[e]pyrrolo[1,2-a][1,4]diazacyclopentadecin-6-yl)carbamate] | 1.01 to 5 | 1.01 to 5 | –
6 | COC[C@@H]1C[C@H](C)CC/C=C\[C@@H]2C[C@@]2(C(=O)NS(=O)(=O)C2(C)CC2)NC(=O)[C@@H]2C[C@@H](Oc3nccc4cc(OC)ccc34)CN2C(=O)[C@H]1NC(=O)OC(C)(C)C [Compound 1005, tert-butyl ((2R,6S,7R,9R,13aS,14aR,16aS,Z)-2-((6-methoxyisoquinolin-1-yl)oxy)-7-(methoxymethyl)-9-methyl-14a-(((1-methylcyclopropyl)sulfonyl)carbamoyl)-5,16-dioxo-1,2,3,5,6,7,8,9,10,11,13a,14,14a,15,16,16a-hexadecahydrocyclopropa[e]pyrrolo[1,2-a][1,4]diazacyclopentadecin-6-yl)carbamate] | 1.01 to 5 | 0.1 to 0.5 | –
7 | COC[C@@H]1CCCC/C=C\[C@@H]2C[C@@]2(C(=O)NS(=O)(=O)C2(C)CC2)NC(=O)[C@@H]2C[C@@H](O)CN2C(=O)[C@H]1NC(=O)OC(C)(C)C | – | – | ring closure, isolated yield ([1]; from C=CCCCC[C@@H](COC)[C@H](NC(=O)OC(C)(C)C)C(=O)N1C[C@H](O)C[C@H]1C(=O)N[C@]1(C(=O)NS(=O)(=O)C2(C)CC2)C[C@H]1C=C, 24.4 mM, 2.0 h): 55%
8 | COC[C@@H]1CC(C)CC/C=C\[C@@H]2C[C@@]2(C(=O)NS(=O)(=O)C2(CF)CC2)NC(=O)[C@@H]2C[C@@H](O)CN2C(=O)[C@H]1NC(=O)OC(C)(C)C (some centres unmarked) | – | – | ring closure, isolated yield ([1]; from tert-butyl (2S,3R)-1-(((2S,4R)-2-(((1R,2S)-1-(((1-(fluoromethyl)cyclopropyl)sulfonyl)carbamoyl)-2-vinylcyclopropyl)carbamoyl)-4-hydroxypyrrolidin-1-yl)-3-(methoxymethyl)-5-methyl-1-oxonon-8-en-2-yl)carbamate, 5.0 mM): 45%
